Assay results: the NIST ThermoML archive (doi:10.1021/je0501843)

Assay: molar heat capacity at constant volume; wn = mass fraction of the nth substance listed
Conditions: Fluid (supercritical or subcritical phases), Vacuum adiabatic calorimetry, w1 = 0.5001

FC(F)C(F)(F)F [pentafluoroethane] + FCF
Conditions	molar heat capacity at constant volume [J/K/mol]
363 K, 13894 kPa	70.07
364 K, 6970 kPa	80.93
364 K, 7223 kPa	79.29
364 K, 7494 kPa	80.29
364 K, 7828 kPa	75.98
364 K, 10192 kPa	72.66
364 K, 14207 kPa	69.59
365 K, 7077 kPa	80.93
365 K, 7344 kPa	79.26
365 K, 7632 kPa	79.75
365 K, 7982 kPa	75.67
365 K, 10427 kPa	72.54
365 K, 14520 kPa	69.04
366 K, 7184 kPa	80.58
366 K, 7465 kPa	80.45
366 K, 7771 kPa	80.4
366 K, 8137 kPa	76.08
366 K, 10664 kPa	73.17
366 K, 14835 kPa	69.94
367 K, 7291 kPa	80.32
367 K, 7587 kPa	79.46
367 K, 7907 kPa	79.31
367 K, 8294 kPa	74.79
367 K, 10900 kPa	72.03
367 K, 15148 kPa	69.1
368 K, 7397 kPa	79.17
368 K, 7708 kPa	77.58
368 K, 8044 kPa	77.88
368 K, 8449 kPa	74.12
368 K, 11133 kPa	71.25
368 K, 15462 kPa	68.32
369 K, 7504 kPa	79.62
369 K, 7831 kPa	78.35
369 K, 8183 kPa	78.65
369 K, 8605 kPa	76.18
369 K, 11369 kPa	72.83
369 K, 15777 kPa	69.74
370 K, 7612 kPa	79.45
370 K, 7953 kPa	77.86
370 K, 8323 kPa	77.55
370 K, 8762 kPa	76.14
370 K, 11608 kPa	72.92
370 K, 16094 kPa	69.84
371 K, 7719 kPa	78.97
371 K, 8075 kPa	77.56
371 K, 8460 kPa	76.45
371 K, 8917 kPa	74.86
371 K, 11844 kPa	72.52
371 K, 16410 kPa	69.31
372 K, 7825 kPa	78.44
372 K, 8198 kPa	77.29
372 K, 8601 kPa	75.95
372 K, 9073 kPa	74.57
372 K, 12081 kPa	71.78
372 K, 16724 kPa	69.08
373 K, 7931 kPa	77.94
373 K, 8321 kPa	76.93
373 K, 8740 kPa	76.42
373 K, 9230 kPa	74.03
373 K, 12318 kPa	72.32
373 K, 17037 kPa	69.04
374 K, 8039 kPa	79.02
374 K, 8445 kPa	77.8
374 K, 8878 kPa	77.52
374 K, 9389 kPa	74.39
374 K, 12556 kPa	73.35
374 K, 17355 kPa	69.94
375 K, 8147 kPa	78.2
375 K, 8567 kPa	75.61
375 K, 9016 kPa	76.25
375 K, 9544 kPa	73.41
375 K, 12795 kPa	71.55
375 K, 17669 kPa	69.58
376 K, 8254 kPa	77.5
376 K, 8690 kPa	75.69
376 K, 9155 kPa	75.06
376 K, 9701 kPa	73.09
376 K, 13033 kPa	71.53
376 K, 17984 kPa	69.16
377 K, 8362 kPa	78.12
377 K, 8813 kPa	76.87
377 K, 9295 kPa	76.67
377 K, 9858 kPa	74.31
377 K, 13272 kPa	72.67
377 K, 18301 kPa	69.67
378 K, 8469 kPa	77.78
378 K, 8937 kPa	76.5
378 K, 9437 kPa	77.01
378 K, 10018 kPa	74.83
378 K, 13511 kPa	71.98
378 K, 18619 kPa	69.86
379 K, 8575 kPa	76.76
379 K, 9060 kPa	75.82
379 K, 9576 kPa	76.42
379 K, 10174 kPa	74.57
379 K, 13747 kPa	71.87
379 K, 18935 kPa	70.14
380 K, 8683 kPa	76.61
380 K, 9183 kPa	75.69
380 K, 9715 kPa	75.6
380 K, 10331 kPa	73.35
380 K, 13988 kPa	71.55
381 K, 8790 kPa	77.44
381 K, 9306 kPa	77.28
381 K, 9856 kPa	75.26
381 K, 10492 kPa	73.9
381 K, 14227 kPa	72.04
382 K, 8897 kPa	78.41
382 K, 9432 kPa	76.92
382 K, 9996 kPa	76.48
382 K, 10651 kPa	74.52
382 K, 14466 kPa	72.98
383 K, 9005 kPa	77.33
383 K, 9553 kPa	75.97
383 K, 10136 kPa	75.35
383 K, 10808 kPa	74.44
383 K, 14706 kPa	72.4
384 K, 9112 kPa	76.6
384 K, 9679 kPa	76.51
384 K, 10277 kPa	75.34
384 K, 10967 kPa	74.6
384 K, 14944 kPa	71.93
385 K, 9219 kPa	77.25
385 K, 9804 kPa	75.82
385 K, 10418 kPa	76.16
385 K, 11125 kPa	74.07
385 K, 15188 kPa	72.26
386 K, 9326 kPa	78.28
386 K, 9929 kPa	76.35
386 K, 10558 kPa	76.6
386 K, 11283 kPa	75.16
386 K, 15426 kPa	73.47
387 K, 9434 kPa	77.16
387 K, 10051 kPa	76.61
387 K, 10699 kPa	76.14
387 K, 11442 kPa	74.89
387 K, 15666 kPa	72.66
388 K, 9540 kPa	76.32
388 K, 10174 kPa	74.86
388 K, 10840 kPa	75.57
388 K, 11602 kPa	73.37
388 K, 15904 kPa	71.19
389 K, 9649 kPa	77.31
389 K, 10296 kPa	75.87
389 K, 10980 kPa	76.71
389 K, 11761 kPa	73.84
389 K, 16147 kPa	71.61
390 K, 9756 kPa	77.57
390 K, 10421 kPa	77.3
390 K, 11124 kPa	76.88
390 K, 11922 kPa	75.02
390 K, 16388 kPa	72.19
391 K, 9862 kPa	77.21
391 K, 10547 kPa	76.53
391 K, 11263 kPa	76.5
391 K, 12081 kPa	74.96
391 K, 16627 kPa	71.79
392 K, 9969 kPa	77.4
392 K, 10670 kPa	75.59
392 K, 11403 kPa	75.77
392 K, 12239 kPa	73.58
392 K, 16868 kPa	71.21
393 K, 10077 kPa	78.13
393 K, 10795 kPa	76.57
393 K, 11546 kPa	75.66
393 K, 12400 kPa	74.26
393 K, 17110 kPa	71.47
394 K, 10185 kPa	78.09
394 K, 10920 kPa	77.19
394 K, 11688 kPa	76.6
394 K, 12560 kPa	75.24
394 K, 17351 kPa	71.82
395 K, 10292 kPa	77.54
395 K, 11045 kPa	76.74
395 K, 11829 kPa	75.92
395 K, 12720 kPa	73.89
395 K, 17590 kPa	71.67
396 K, 10400 kPa	77.68
396 K, 11168 kPa	76.85
396 K, 11972 kPa	76.16
396 K, 12880 kPa	73.78
396 K, 17831 kPa	71.16
397 K, 10508 kPa	78.41
397 K, 11292 kPa	76.06
397 K, 12113 kPa	76.4
397 K, 13040 kPa	74.36
397 K, 18073 kPa	71.18
398 K, 10616 kPa	78.25
398 K, 11415 kPa	76.66
398 K, 12256 kPa	75.92
398 K, 13199 kPa	74.81
398 K, 18315 kPa	72.43
399 K, 10723 kPa	77.16
399 K, 11538 kPa	76.8
399 K, 12395 kPa	76.53
399 K, 13361 kPa	74.08
399 K, 18556 kPa	72.11
